Test results taken from article PMC3692424, “A New Type of Na^+-Driven ATP Synthase Membrane Rotor with a Two-Carboxylate Ion-Coupling Motif” (PLoS Biology, 2013).

Experiments:
[1] = molecular target: T1, F. nucleatum F1Fo-ATP synthase (purified; c-ring site of DCCD) (Fusobacterium nucleatum, UniProt Q8RGD7); assay: inhibition of ATP hydrolysis, ATP-regenerating assay; type: biochemical; conditions: covalent (Glu65 of subunit c); 20 min preincubation at 25 °C, 50 mM MOPS, 2 mM MgCl2, pH 7.5; no added Na+
T1 construct: gene atpE; same native holoenzyme as P1; entry split because DCCD modifies Glu65 of subunit c; with ATP synthase subunit alpha; ATP synthase subunit beta; ATP synthase gamma chain; ATP synthase subunit delta; ATP synthase epsilon chain; ATP synthase subunit a; ATP synthase subunit b

[2] = molecular target: T2, F. nucleatum c11 ring (isolated c-ring) (Fusobacterium nucleatum, UniProt Q8RGD7); assay: fluorescence increase on labelling; SDS-PAGE under UV light; type: binding; conditions: covalent (Glu65); 100 µM NCD-4, MES pH 5.7, 1.5% n-octyl-β-D-glycoside, no Na+
T2 construct: gene atpE; isolated c11 ring from hybrid ATP synthase (I. tartaricus F1-ab2) expressed in E. coli DK8; detergent-solubilized
T2 sequence (Q8RGD7 whole entry): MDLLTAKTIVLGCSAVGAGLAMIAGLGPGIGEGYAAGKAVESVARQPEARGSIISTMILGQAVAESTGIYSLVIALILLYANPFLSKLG

| SMILES | inhibition of ATP hydrolysis, ATP-regenerating assay [1] | fluorescence increase on labelling; SDS-PAGE under UV light [2] |
| --- | --- | --- |
| C(=NC1CCCCC1)=NC1CCCCC1 [DCCD, N,N′-dicyclohexylcarbodiimide] | The ATPase activity of the enzyme was inhibited by DCCD in a concentration-dependent manner | – |
| CN(C)c1ccc(N=C=NC2CCCCC2)c2ccccc12 [NCD-4, N-cyclohexyl-N′-(4-(dimethylamino)-α-naphthyl)-carbodiimide] | – | NCD-4 modifies Glu65 in the isolated c-ring |
